#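 Method: 48-hour compound exposure of cells in 96-well plates, five concentrations, linear interpolation of endpoints. GI50: concentration for 50% inhibition of growth. TGI is the concentration that stops growth completely.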
# Tested on: NCI-H226 lung
# Test: NCI tumour cell line growth inhibition, 48 h
SMILES,TGI,GI50
CC(C(N)=O)N(C)C(=O)c1cnc2ccccc2c1 (configuration not stated),> 100 µM,
CCCCCCCCCCCCCCCCCC(=O)NCC(COP(=O)(O)O)OCC (configuration not stated),58.4 µM,
COc1ccc2c(c1)/C(=N/OC(C)=O)c1c-2cnc2ccccc12,> 100 µM,33.5 µM
Cc1cc2nc(-c3c(F)cccc3Cl)n(Cc3c(F)cccc3Cl)c2cc1C,38.3 µM,15 µM
O=C1C=Cc2ncccc2C1=O,> 58.7 µM,
C/C(CC(=O)Nc1cccc([N+](=O)[O-])c1)=N\NC(=O)CC#N,> 100 µM,
[CH3][Sn]1([CH3])[O]CC(COc2cc(Cl)c(Cl)cc2Cl)[O]1 (configuration not stated),> 100 µM,30.7 µM
O=C(/C=C/c1ccccc1)CCC1C(=O)NC(=S)NC1=O,> 100 µM,
CC(=O)OC(=O)O/C=C\CCl,> 100 µM,
O=C(Nc1nc2ccccc2s1)c1cc(-c2ccc(F)cc2)n2nc(-c3ccccc3)cc2n1,> 100 µM,6.31 µM
C/C(=N/O)c1ccc(Nc2cc(-n3ccnc3)c3ccccc3n2)cc1,89 µM,30 µM
Cc1ccc(/C=N/NS(=O)(=O)c2ccccc2)c(C)c1,> 100 µM,
C#CCOCn1cnc2ncnc(N)c21,> 100 µM,
Cc1noc(/N=C2\C=C(Nc3onc(C)c3C)C(=O)c3ccccc32)c1C,> 100 µM,

# Tested on: OVCAR-3 ovarian
# Test: NCI tumour cell line growth inhibition, 48 h
SMILES,TGI,GI50
CC1=C(N2CC2)C(=O)c2ccccc2C1=O,2.89 µM,
O=S1(=O)c2ccccc2N=C(c2ccccc2Cl)CC1c1ccc(F)cc1 (configuration not stated),27.4 µM,
CCN(CC)Cc1cc(Nc2c3ccccc3nc3cc(Cl)ccc23)ccc1O,3.28 µM,1.74 µM
CC1=CC(=O)NP(=O)(C23CC4CC(CC(C4)C2)C3)N1 (configuration not stated),> 100 µM,
Oc1ccc(Cl)cc1/C=N\NC(=S)N/N=C/c1cc(Cl)ccc1O,11.7 µM,1.87 µM
O=c1[nH]cc(C(F)(C(F)(F)F)C(F)(F)F)c(=O)[nH]1,> 100 µM,
COc1ccc2c(c1)c1c3n2CCNN=C3CCC1,> 100 µM,
CC(=O)[C-](C(C)=O)c1ccccc1.CC(=O)[C-](C(C)=O)c1ccccc1.CC(=O)[C-](C(C)=O)c1ccccc1.[Cl-].[Zr+4],> 100 µM,> 100 µM
CC(C)N1C(C)[C@@H](c2ccccc2)O[P@]1(=O)CC1=CCCCC1 (some centres not stated),> 100 µM,
COc1ccc(C2=Nc3c/c(=C\c4c(O)[nH]c5cc(Cl)ccc45)ccc3=N2)cc1,8.24 µM,2.43 µM
COc1ccc(NC(=O)C2C(=O)N(c3ccc(OC)cc3)C(=O)/C2=N\NC(N)=O)cc1 (configuration not stated),> 100 µM,
C/C(=N\NS(=O)(=O)c1ccc([N+](=O)[O-])cc1)c1ccc[n+]([O-])n1,4.95 µM,
S=c1c2ccccc2c(=S)n2n1CC=CC2,> 100 µM,
CC(C)(C)Sc1nnc(SC(C)(C)C)c2c(=O)[nH]nc(SC(C)(C)C)c12,22.6 µM,
CCCCNC1=C(C(=O)OCC)/C(=N/NC(=O)c2ccccc2O)CO1,> 100 µM,
N#CC(C(=O)CCCC(=O)Nc1ccc(Cl)cc1Cl)c1ccc(Cl)cc1 (configuration not stated),> 100 µM,
O=CCCCC(Sc1ccccc1)Sc1ccccc1,68 µM,

SMILES,TGI,GI50
Nc1ccn(C2OC(C(OC3OC(CO)C(O)C(N)C3O)C(O)C(O)C(O)C(O)CO)C(N)C(O)C2O)c(=O)n1 (configuration not stated),86.6 µM,
COc1ccc(C)cc1C1CCC(=O)O1 (configuration not stated),> 100 µM,
Cc1ccc2nc(NC(=O)C(=O)CC(=O)c3cccc4ccccc34)sc2c1,49.6 µM,
O=C1CCC(=O)c2sccc2N1,> 100 µM,
CC(C(N)=O)N(C)C(=O)c1cnc2ccccc2c1 (configuration not stated),> 100 µM,
CCCCCCCCCCCCCCCCCC(=O)NCC(COP(=O)(O)O)OCC (configuration not stated),> 100 µM,
O=C1C=Cc2ncccc2C1=O,46.9 µM,
C/C(CC(=O)Nc1cccc([N+](=O)[O-])c1)=N\NC(=O)CC#N,> 100 µM,
[CH3][Sn]1([CH3])[O]CC(COc2cc(Cl)c(Cl)cc2Cl)[O]1 (configuration not stated),> 100 µM,42.8 µM
O=C(/C=C/c1ccccc1)CCC1C(=O)NC(=S)NC1=O,> 100 µM,
CCc1cc(Cc2ccc(C)c(NC(=O)C(=O)C3C(=O)NC(=O)NC3=O)c2CC)cc(C)c1NC(=O)C(=O)C1C(=O)NC(=O)NC1=O,> 100 µM,
CC(=O)OC(=O)O/C=C\CCl,> 100 µM,
CC(=O)c1c2c(cc3c1CC1(C3)Cc3cc4c(c(C(=O)O)c3C1)CCC4)CCC2 (configuration not stated),47.2 µM,
C/C(=N/O)c1ccc(Nc2cc(-n3ccnc3)c3ccccc3n2)cc1,91.3 µM,22.5 µM
Cc1ccc(/C=N/NS(=O)(=O)c2ccccc2)c(C)c1,> 100 µM,
C#CCOCn1cnc2ncnc(N)c21,> 100 µM,
Cc1noc(/N=C2\C=C(Nc3onc(C)c3C)C(=O)c3ccccc32)c1C,83 µM,

# Tested on: SK-OV-3 ovarian
# Test: NCI tumour cell line growth inhibition, 48 h
SMILES,TGI,GI50
CC1=C(N2CC2)C(=O)c2ccccc2C1=O,> 100 µM,
O=S1(=O)c2ccccc2N=C(c2ccccc2Cl)CC1c1ccc(F)cc1 (configuration not stated),89 µM,
CCN(CC)Cc1cc(Nc2c3ccccc3nc3cc(Cl)ccc23)ccc1O,3.86 µM,2.01 µM
CC1=CC(=O)NP(=O)(C23CC4CC(CC(C4)C2)C3)N1 (configuration not stated),> 100 µM,
O=c1[nH]cc(C(F)(C(F)(F)F)C(F)(F)F)c(=O)[nH]1,> 100 µM,
COc1ccc2c(c1)c1c3n2CCNN=C3CCC1,> 100 µM,
CC(=O)[C-](C(C)=O)c1ccccc1.CC(=O)[C-](C(C)=O)c1ccccc1.CC(=O)[C-](C(C)=O)c1ccccc1.[Cl-].[Zr+4],> 100 µM,> 100 µM
CC(C)N1C(C)[C@@H](c2ccccc2)O[P@]1(=O)CC1=CCCCC1 (some centres not stated),> 100 µM,
COc1ccc(C2=Nc3c/c(=C\c4c(O)[nH]c5cc(Cl)ccc45)ccc3=N2)cc1,30.5 µM,12.4 µM
CN=C(N)N/N=C(\C)c1ccc2c(c1)Cc1ccccc1-2,5.1 µM,1.61 µM
COC(=O)C(=O)C(C(=O)C(=O)Nc1cc(Cl)c(Cl)cc1Cl)c1nc2ccc([N+](=O)[O-])cc2[nH]c1=O (configuration not stated),> 100 µM,
COc1ccc(NC(=O)C2C(=O)N(c3ccc(OC)cc3)C(=O)/C2=N\NC(N)=O)cc1 (configuration not stated),49 µM,
C/C(=N\NS(=O)(=O)c1ccc([N+](=O)[O-])cc1)c1ccc[n+]([O-])n1,7.24 µM,
S=c1c2ccccc2c(=S)n2n1CC=CC2,> 100 µM,
CC(C)(C)Sc1nnc(SC(C)(C)C)c2c(=O)[nH]nc(SC(C)(C)C)c12,32.5 µM,
CCCCNC1=C(C(=O)OCC)/C(=N/NC(=O)c2ccccc2O)CO1,> 100 µM,
N#CC(C(=O)CCCC(=O)Nc1ccc(Cl)cc1Cl)c1ccc(Cl)cc1 (configuration not stated),> 100 µM,
O=CCCCC(Sc1ccccc1)Sc1ccccc1,59.4 µM,
COc1ccc(C)cc1C1CCC(=O)O1 (configuration not stated),> 100 µM,

SMILES,TGI,GI50
Cc1ccc2nc(NC(=O)C(=O)CC(=O)c3cccc4ccccc34)sc2c1,36.6 µM,
O=C1CCC(=O)c2sccc2N1,> 100 µM,
O=C(c1ccc2ccccc2c1)c1c(C(F)(F)F)n([O-])c2ccc(F)cc2[n+]1=O,5.05 µM,2.16 µM
CCCCCCCCCCCCCCCCCC(=O)NCC(COP(=O)(O)O)OCC (configuration not stated),> 100 µM,
COc1ccc2c(c1)/C(=N/OC(C)=O)c1c-2cnc2ccccc12,> 100 µM,40.4 µM
Cn1nc(-c2ccccc2)c(C(=O)/C=C/c2ccc(Cl)cc2)c(N2CCCC2)c1=O,18.8 µM,
Cc1cc2nc(-c3c(F)cccc3Cl)n(Cc3c(F)cccc3Cl)c2cc1C,51.8 µM,19.3 µM
O=C1C=Cc2ncccc2C1=O,> 61.7 µM,
C/C(CC(=O)Nc1cccc([N+](=O)[O-])c1)=N\NC(=O)CC#N,> 100 µM,
[CH3][Sn]1([CH3])[O]CC(COc2cc(Cl)c(Cl)cc2Cl)[O]1 (configuration not stated),> 100 µM,85.6 µM
O=C(/C=C/c1ccccc1)CCC1C(=O)NC(=S)NC1=O,> 100 µM,
CCc1cc(Cc2ccc(C)c(NC(=O)C(=O)C3C(=O)NC(=O)NC3=O)c2CC)cc(C)c1NC(=O)C(=O)C1C(=O)NC(=O)NC1=O,> 100 µM,
CC(=O)OC(=O)O/C=C\CCl,> 100 µM,
O=C(Nc1nc2ccccc2s1)c1cc(-c2ccc(F)cc2)n2nc(-c3ccccc3)cc2n1,5.56 µM,2.3 µM
C/C(=N/O)c1ccc(Nc2cc(-n3ccnc3)c3ccccc3n2)cc1,> 100 µM,> 100 µM
Cc1ccc(/C=N/NS(=O)(=O)c2ccccc2)c(C)c1,> 100 µM,
C#CCOCn1cnc2ncnc(N)c21,> 100 µM,
Cc1noc(/N=C2\C=C(Nc3onc(C)c3C)C(=O)c3ccccc32)c1C,> 100 µM,

# Tested on: RPMI-8226 leukemia
# Test: NCI tumour cell line growth inhibition, 48 h
row,SMILES,TGI
1,O=S1(=O)c2ccccc2N=C(c2ccccc2Cl)CC1c1ccc(F)cc1 (configuration not stated),14.4 µM

# Source: PubChem BioAssay (NCI)
